Assays:
[1] = test system: alkaline phosphatase, collagen type I and osteoponin; assay: Morphological and transcriptional analysis of osteogenesis (FIG. 5); type: cell-based
[2] = test system: Cbfa1/Runx2 gene promoter; assay: Cbfa1/Runx2 reporter gene assay, stably transfected MC3T3-E1 cells; type: cell-based, mouse
Excerpt: Cbfa1/Runx2 Reporter Gene Assay: The murine Cbfa1/Runx2 gene promoter region (1818 bp) was amplified by PCR from mouse genomic DNA library (Clontech) using the following primers: The resulting PCR product was inserted into Topo cloning vector (Invitrogen), amplified and sequenced. The resulting plasmid was digested with restriction enzymes Mlu and XhoI (New England Biolab) and the 1.8 kb fragment was inserted into the Mlu/XhoI cloning sites in pGL3-BV luciferase reporter vector (Promega). […] After an overnight incubation, the cells reached 80% confluency. Plasmid DNA (1 μg) was transfected into cells using 3 μL of Fugene 6 transfection reagent (Roche) using the manufacturer's protocol. After 8 hours, the transfected cells were plated into 96-well assay plates (Corning) and treated with 300 ng/mL of recombinant human bone morphogenetic protein 4 (BMP-4) (Sigma), 1% DMSO (Sigma) or different concentrations of Compound A (dissolved in DMSO). The cells were incubated for 4 days, then the luciferase activity in the cells was assayed using the Bright-Glo luciferase assay kit (Promega) using the manufacturer's protocol. Luminescence signals were detected by Acquest AD (Molecular Devices) plate reader. Due to the low transfection efficiency of MC3T3-E1 cells, the Cbfa1/Runx2 reporter assay was carried out with stably transfected MC3T3-E1 cells. […]

C3H10T1/2 cells [3] = assay: Morphology of C3H10T1/2 cells under light microscopy; type: cell-based, mouse; conditions: 2 μM for 4 days
Procedure: C3H10T1/2 cells were treated with DMSO (1%) and Compound A (purmorphamine) (2 μM) for 4 days. C2C12 cells were treated with DMSO (1%), Compound A (purmorphamine) (2 μM) or BMP-4 (300 ng/mL) for 4 days. The morphology of the cells was examined under light microscopy.

[4] = test system: Cbfa1/Runx2 gene promoter; assay: Cbfa1/Runx2 reporter gene assay in 3T3-L1 cells; type: cell-based, mouse; conditions: 3T3-L1 pre-adipocyte cells
Excerpt: (§1) Cbfa1/Runx2 Reporter Gene Assay: The murine Cbfa1/Runx2 gene promoter region (1818 bp) was amplified by PCR from mouse genomic DNA library (Clontech) using the following primers: The resulting PCR product was inserted into Topo cloning vector (Invitrogen), amplified and sequenced. The resulting plasmid was digested with restriction enzymes Mlu and XhoI (New England Biolab) and the 1.8 kb fragment was inserted into the Mlu/XhoI cloning sites in pGL3-BV luciferase reporter vector (Promega). For transient transfection assays, cells were seeded in a 6-well plate at a density of 30,000 cells/well in 2 mL of growth medium. After an overnight incubation, the cells reached 80% confluency. Plasmid DNA (1 μg) was transfected into cells using 3 μL of Fugene 6 transfection reagent (Roche) using the manufacturer's protocol. After 8 hours, the transfected cells were plated into 96-well assay plates (Corning) and treated with 300 ng/mL of recombinant human bone morphogenetic protein 4 (BMP-4) (Sigma), 1% DMSO (Sigma) or different concentrations of Compound A (dissolved in DMSO). The cells were incubated for 4 days, then the luciferase activity in the cells was assayed using the Bright-Glo luciferase assay kit (Promega) using the manufacturer's protocol. Luminescence signals were detected by Acquest AD (Molecular Devices) plate reader. […]

MC3T3-E1 cells = assay: Terminal differentiation of MC3T3-E1 pre-osteoblast cells; type: cell-based, mouse
Excerpt: Mouse MC3T3-E1 cells are progenitor cells committed to an osteoblast lineage. […] Since MC3T3-E1 cells already have high levels of endogenous Cbfa1/Runx2, slight up-regulation of this gene may be sufficient to promote terminal differentiation (see, e.g., Xiao et al., J. Cell. Biochem. 74:596 (1999) and Wang et al., J. Bone. Miner. Res. 14:893 (1999)). The change of Cbfa1/Runx2 reporter activity in stably transfected MC3T3-E1 cells is not dramatic when treated with Compound A.
(§2) 3T3-L1 cells, C2C12 cells, and MC-3T3E1 cells were treated with DMSO (control), BMP-4(300 ng/mL), BMP-4 (100 ng/mL) and Compound A (1 μM), or 0.1 μM, 0.5 μM, 1 μM, 5 μM, or 10 μM Compound A. ALP activity was measured as described in Example 1 above, after four days of treatment.

C3H10T1/2 cells [5] = assay: Histochemical staining for endogenous alkaline phosphatase expression in C3H10T1/2 cells; type: cell-based, mouse; conditions: 4 days; for cells stained positive for ALP: Compound A 2 μM, BMP-4 300 ng/mL
Procedure: Histochemical Staining for Endogenous Alkaline Phosphatase Expression: C3H10T1/2 cells were seeded in 96-well assay plates (Corning) at a density of 10,000 cells/well, and treated with 300 ng/mL of BMP-4, 1% DMSO, 2 μM of Compound A, or 100 ng/mL of BMP and 1 μM of Compound A for 4 days. The cells were then washed 3 times with 200 μL PBS and fixed by a 15 minute incubation in a 10% formalin solution (Sigma). The fixed cells were washed again with 3 times with 200 μL PBS and stained with the Alkaline Phosphatase Staining Kit 86R (Sigma Diagnostics) using the manufacturer's protocol. The images were taken on a Nikon Eclipse TE300 microscope, and ALP positive cells were counted manually from the images.
C3H10T1/2 cells were treated with DMSO (a), 300 ng/mL of BMP-4 (b), 2 μM of Compound A (c), and 100 ng/mL of BMP and 1 μM of Compound A (d) for 4 days and stained for ALP activity. ALP positive cells were stained red and the cell nuclei were stained blue.

3T3-L1 cells = assay: Alkaline phosphatase (ALP) activity in 3T3-L1 pre-adipocyte cells; type: cell-based, mouse
Procedure: Alkaline Phosphatase Assay: C3H10T1/2 cells were expanded in T175 flasks; cells at the 13th passage were detached by trypsin/EDTA and diluted in the growth media. The resulting cell suspension was then plated into black clear bottom 384-well plates (Greiner) with 2500 cells/well in 100 μL growth media using a Multi-drop™ liquid delivery system (Titertek Instruments). After an overnight incubation, cells were attached to the bottom of the wells. A stock solution of Compound A in DMSO (500 nL) was delivered into corresponding well using a Mini Trak™ multiposition dispenser system (Packard BioScience) to make the final concentration of 5 μM of each compound. Cells were then incubated at 37° C. in 5% CO2. […] After 5 min, 10 μL of alkaline phosphatase substrate solution (1 mM in pH 10 buffer, 2′-[2′-benzothiazoyl]-6′-hydroxybenzothiazole phosphate (Promega) was added to each well. After a 15 minute incubation at room temperature, the plates were read on an Acquest high-throughput plate reader (Molecular Devices) using the manufacturer's protocol.
as §2

C3H10T1/2 cells [6] = assay: Alkaline phosphatase (ALP) enzymatic assay in C3H10T1/2 cells; type: cell-based, mouse
Procedure: Alkaline Phosphatase Assay: C3H10T1/2 cells were expanded in T175 flasks; cells at the 13th passage were detached by trypsin/EDTA and diluted in the growth media. The resulting cell suspension was then plated into black clear bottom 384-well plates (Greiner) with 2500 cells/well in 100 μL growth media using a Multi-dropTM liquid delivery system (Titertek Instruments). After an overnight incubation, cells were attached to the bottom of the wells. A stock solution of Compound A in DMSO (500 nL) was delivered into corresponding well using a Mini TrakTM multiposition dispenser system (Packard BioScience) to make the final concentration of 5 μM of each compound. Cells were then incubated at 37° C. in 5% CO2. After 4 days, the media was removed and 10 μL of Passive Lysis Buffer (Promega) was added into each well. After 5 min, 10 μL of alkaline phosphatase substrate solution (1 mM in pH 10 buffer, 2'-[2'-benzothiazoyl]-6'-hydroxybenzothiazole phosphate (Promega) was added to each well. After a 15 minute incubation at room temperature, the plates were read on an Acquest high-throughput plate reader (Molecular Devices) using the manufacturer's protocol. C3H10T1/2 cells were treated with DMSO (control), BMP-4(300 ng/mL), BMP-4 (100 ng/mL) and Compound A (1 μM), or 0.5 μ[…], or 10 μM Compound A. Alkaline phosphatase (ALP) activity was measured as described in Example 2 above, after two, four, and six days of treatment.

[7] = test system: Cbfa1/Runx2 gene promoter; assay: Cbfa1/Runx2 reporter gene assay in C2C12 cells; type: cell-based, mouse
Excerpt: as §1

[8] = test system: Cbfa1/Runx2 gene promoter; assay: Cbfa1/Runx2 reporter gene assay, transiently transfected C3H10T1/2 cells; type: cell-based, mouse
Excerpt: as §1

c1ccc2c(Oc3nc(Nc4ccc(N5CCOCC5)cc4)c4ncn(C5CCCCC5)c4n3)cccc2c1 [Compound A, 2-(1-Naphthoxy)-6-(4-morpholinoanilino)-9-cyclohexylpurine]
expression of alkaline phosphatase, collagen type I and osteoponin ([1]; FIG. 5A): induces expression
DNA microarray analysis ([1]; FIG. 5B): induces expression of a number of transcription factors and proteins
change of Cbfa1/Runx2 reporter activity [2]: not dramatic
morphology of the cells (C3H10T1/2 cells [3]): changed from fibroblast (long and spindle-shaped) to osteocyte (small and round)
Cbfa1/Runx2 expression [4]: induces Cbfa1/Runx2 expression
terminal differentiation of MC3T3-E1 cells (MC3T3-E1 cells): promote the terminal differentiation
cells stained positive for ALP (C3H10T1/2 cells [5]): more than 80%
increase in ALP level (3T3-L1 cells; optimal concentration of 5 μM): 9 fold
effectiveness in inducing the expression of ALP compared with BMP-4 (C3H10T1/2 cells [6]; C3H10T1/2 cells, FIG. 1): more effective than BMP-4
EC50 (C3H10T1/2 cells [6]; Mus musculus, C3H 10T1/2, ALP enzymatic assay, C3H10T1/2 cells): 1000 nM
increase in ALP (C3H10T1/2 cells [6]; after treatment for 4 days, compared with 1% DMSO treatment): > 50 fold
Cbfa1/Runx2 gene expression [7]: can be induced by Compound A to express the Cbfa1/Runx2 gene
Cbfa1 gene upregulation ([8]; C3H10T1/2 cells, FIG. 4B): induces Cbfa1 gene upregulation
increase in Cbfa1/Runx2 reporter activity ([8]; treatment for 4 days, transient transfection): more than 6 fold

B1: BMP-4: recombinant human bone morphogenetic protein 4 (BMP-4) (Sigma) (protein, UniProt P12644 293-408, looked up)
Bone morphogenetic protein 4: SPKHHSQRARKKNKNCRRHSLYVDFSDVGWNDWIVAPPGYQAFYCHGDCPFPLADHLNSTNHAIVQTLVNSVNSSIPKACCVPTELSAISMLYLDEYDKVVLKNYQEMVVEGCGCR
terminal differentiation of MC3T3-E1 cells (MC3T3-E1 cells): promote the terminal differentiation
cells stained positive for ALP (C3H10T1/2 cells [5]): 40%
ALP expression level of induced cells compared to cells treated with Compound A (C3H10T1/2 cells [5]; histochemical staining): higher expression level of ALP
induction of ALP expression (3T3-L1 cells; BMP-4 alone): more than 40 fold
